Like-named read-outs stand apart in the source and are kept apart here.
Columns and labels:
EGFR = EGFR (Homo sapiens (Human), UniProt P00533); experiment: ErbB enzyme assay (CisBio HTRF KinEASE-TK), Assay 3; type: biochemical
Procedure: (§1) Compound potencies were determined using CisBio's HTRF Kinease-TK assay technology. The kinases were incubated with 250 nM TK-substrate biotin (CisBio, part of cat #62TK0PEC) at 1 mM ATP along with test compounds in a buffer consisting of 25 mM HEPES, pH 7.4, 10 mM MgCl2, 0.01% Triton X-100, and 2% DMSO in a volume of 8 μL. Compounds were prepared as a three-fold serial dilution in DMSO and added to the assay to give the appropriate final concentration. After 30-minute incubation at 22° C., the reaction was quenched by adding 8 μL of quench solution containing 62.5 nM Sa-XL665 and 0.25× TK-Ab-Cryptate in HTRF detection buffer (all from CisBio, part of cat #62TK0PEC). After a 1-hour incubation at 22° C., the extent of reaction was determined using a PerkinElmer EnVision multimode plate reader via HTRF dual wavelength detection, and the percent of control (POC) was calculated using a ratiometric emission factor. One hundred POC was determined using DMSO only samples (no compound present), and 0 POC was determined using pre-quenched control reactions. A 4-parameter logistic curve was fit to the POC values as a function of the concentration of compound, and the IC50 value was the point where the best-fit curve crossed 50 POC.
(§2) Enzyme lots and concentration used are in Table 2.

ErbB2 WT = ErbB2 WT (Homo sapiens (Human), UniProt P04626); experiment: ErbB enzyme assay (CisBio HTRF KinEASE-TK), Assay 2; type: biochemical
Procedure: as §1, with “Compounds were prepared as a three-fold serial dilution in DMSO and added to the assay to give the appropriate final concentration.” left out, “reactions.” for “reactions. A 4-parameter logistic curve was fit to the POC values as a function of the concentration of compound, and the IC50 value was the point where the best-fit curve crossed 50 POC.”
as §2

[1] = target: ErbB2 insYVMA (HER2-YVMA, SEQ ID NO: 2) (Homo sapiens, UniProt P04626, INS775YVMA/P1170A); experiment: biochemical; conditions: ErbB2 insYVMA enzyme assay
[2] = target: ErbB2 with Exon 20 YVMA insertion (HER2-YVMA) (Homo sapiens (Human), UniProt P04626, INS775YVMA); experiment: Cellular phosphorylation assay, constitutive ErbB2 phosphorylation (Y1196) in engineered NIH 3T3 cells, Assay 4; type: cell-based
Procedure: Serially diluted compounds were added to the plates for 1 hour at 37° C./5% CO2. EGFR WT cells were stimulated with 100 ng/ml rEGF for an additional 10 minutes at 37° C./5% CO2. After compound incubation, medium was removed from the cells, which were then fixed in 3.7% formaldehyde in PBS at room temperature for 20 minutes. Following a wash with PBS, cells were permeabilized with 100% methanol at room temperature for 10 minutes. Cells were then washed with PBS/0.05% Tween-20 and blocked with Odyssey blocking buffer (LI-COR Biosciences) for at least 1 hour at room temperature. Antibodies to phosphorylated ErbB2 (Y1196, Cell Signaling #6942) or phosphorylated EGFR (Y1068, Cell Signaling #3777) and GAPDH (Millipore #MAB374) were added to the cells in blocking buffer containing 0.05% azide and incubated overnight at 4° C. After washing with PBS/0.05° i° Tween-20, the cells were incubated with fluorescently labeled secondary anti-rabbit antibody (LiCOR, IRDye 800CW #926-32211) and anti-mouse antibody (Molecular Probes, Alexa Fluor 680 #A21058) for 1 hour at room temperature in the dark. Cells were then washed and analyzed for fluorescence at both wavelengths using the Odyssey Infrared Imaging System (LI-COR Biosciences). Phosphorylated ErbB2 and EGFR signal was normalized to GAPDH signal to generate curves and calculate IC50 values.

Chain of ErbB2 with Exon 20 YVMA insertion (HER2-YVMA) (P04626 other isoform, or with tags, fused parts or gaps ins YVMA behind 775): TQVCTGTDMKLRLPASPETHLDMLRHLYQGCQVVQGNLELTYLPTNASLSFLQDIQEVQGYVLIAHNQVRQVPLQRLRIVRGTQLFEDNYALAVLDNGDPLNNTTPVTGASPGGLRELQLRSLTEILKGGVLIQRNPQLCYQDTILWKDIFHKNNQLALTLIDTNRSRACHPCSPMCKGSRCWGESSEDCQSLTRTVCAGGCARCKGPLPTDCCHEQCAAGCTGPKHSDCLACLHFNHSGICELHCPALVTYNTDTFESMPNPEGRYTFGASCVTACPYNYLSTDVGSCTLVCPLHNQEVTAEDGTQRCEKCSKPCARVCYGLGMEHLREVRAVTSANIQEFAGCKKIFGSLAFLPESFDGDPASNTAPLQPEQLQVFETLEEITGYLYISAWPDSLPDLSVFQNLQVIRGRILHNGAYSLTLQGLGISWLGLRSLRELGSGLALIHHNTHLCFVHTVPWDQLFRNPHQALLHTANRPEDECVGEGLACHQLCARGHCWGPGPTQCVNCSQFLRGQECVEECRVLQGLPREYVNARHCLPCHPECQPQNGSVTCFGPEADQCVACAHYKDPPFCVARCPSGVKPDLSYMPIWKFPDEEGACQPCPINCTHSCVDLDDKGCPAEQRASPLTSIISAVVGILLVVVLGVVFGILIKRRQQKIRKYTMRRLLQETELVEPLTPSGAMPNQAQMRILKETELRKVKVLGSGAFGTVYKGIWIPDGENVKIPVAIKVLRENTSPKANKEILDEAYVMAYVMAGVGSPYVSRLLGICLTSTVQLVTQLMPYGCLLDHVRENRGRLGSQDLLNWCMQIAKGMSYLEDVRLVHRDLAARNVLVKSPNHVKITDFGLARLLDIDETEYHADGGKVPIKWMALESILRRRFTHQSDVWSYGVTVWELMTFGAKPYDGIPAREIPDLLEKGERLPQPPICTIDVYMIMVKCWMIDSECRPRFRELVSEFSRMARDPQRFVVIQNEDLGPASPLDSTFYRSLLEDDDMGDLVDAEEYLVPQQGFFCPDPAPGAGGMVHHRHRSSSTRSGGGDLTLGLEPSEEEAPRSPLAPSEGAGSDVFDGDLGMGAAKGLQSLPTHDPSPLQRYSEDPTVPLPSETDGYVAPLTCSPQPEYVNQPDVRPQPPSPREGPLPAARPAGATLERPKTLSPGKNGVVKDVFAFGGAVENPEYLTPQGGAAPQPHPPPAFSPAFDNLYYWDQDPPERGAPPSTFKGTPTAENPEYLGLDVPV
Chain of EGFR (P00533 25-1210): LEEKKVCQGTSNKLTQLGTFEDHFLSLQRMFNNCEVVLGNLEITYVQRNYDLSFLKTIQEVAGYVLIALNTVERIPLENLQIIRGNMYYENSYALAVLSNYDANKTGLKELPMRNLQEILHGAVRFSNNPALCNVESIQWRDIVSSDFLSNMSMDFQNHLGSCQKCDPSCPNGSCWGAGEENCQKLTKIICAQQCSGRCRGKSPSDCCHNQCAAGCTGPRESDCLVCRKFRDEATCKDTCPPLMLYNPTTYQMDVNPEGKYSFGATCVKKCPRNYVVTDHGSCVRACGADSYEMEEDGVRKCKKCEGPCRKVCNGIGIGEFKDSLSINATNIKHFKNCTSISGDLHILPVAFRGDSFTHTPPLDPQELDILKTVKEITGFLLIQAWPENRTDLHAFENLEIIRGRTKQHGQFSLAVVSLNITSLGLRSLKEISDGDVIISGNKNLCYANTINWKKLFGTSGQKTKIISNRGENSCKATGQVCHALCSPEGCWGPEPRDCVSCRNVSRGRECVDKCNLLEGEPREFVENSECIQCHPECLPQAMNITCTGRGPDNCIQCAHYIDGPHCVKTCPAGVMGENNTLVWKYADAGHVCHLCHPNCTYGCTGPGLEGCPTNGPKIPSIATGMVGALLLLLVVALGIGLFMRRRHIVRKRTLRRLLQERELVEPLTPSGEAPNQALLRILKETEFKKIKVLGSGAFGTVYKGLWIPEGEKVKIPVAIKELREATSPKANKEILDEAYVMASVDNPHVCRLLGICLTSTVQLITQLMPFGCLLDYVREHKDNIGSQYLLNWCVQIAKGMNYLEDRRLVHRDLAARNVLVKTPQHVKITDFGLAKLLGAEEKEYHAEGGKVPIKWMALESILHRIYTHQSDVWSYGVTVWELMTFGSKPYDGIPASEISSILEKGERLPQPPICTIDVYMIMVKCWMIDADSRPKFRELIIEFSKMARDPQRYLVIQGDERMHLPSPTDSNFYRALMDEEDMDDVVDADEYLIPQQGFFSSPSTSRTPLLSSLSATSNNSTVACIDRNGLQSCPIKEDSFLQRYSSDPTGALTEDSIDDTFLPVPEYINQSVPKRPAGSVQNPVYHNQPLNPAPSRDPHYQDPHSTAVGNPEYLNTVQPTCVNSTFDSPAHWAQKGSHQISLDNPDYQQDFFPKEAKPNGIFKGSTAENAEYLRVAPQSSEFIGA
Chain of ErbB2 WT (P04626 23-1255): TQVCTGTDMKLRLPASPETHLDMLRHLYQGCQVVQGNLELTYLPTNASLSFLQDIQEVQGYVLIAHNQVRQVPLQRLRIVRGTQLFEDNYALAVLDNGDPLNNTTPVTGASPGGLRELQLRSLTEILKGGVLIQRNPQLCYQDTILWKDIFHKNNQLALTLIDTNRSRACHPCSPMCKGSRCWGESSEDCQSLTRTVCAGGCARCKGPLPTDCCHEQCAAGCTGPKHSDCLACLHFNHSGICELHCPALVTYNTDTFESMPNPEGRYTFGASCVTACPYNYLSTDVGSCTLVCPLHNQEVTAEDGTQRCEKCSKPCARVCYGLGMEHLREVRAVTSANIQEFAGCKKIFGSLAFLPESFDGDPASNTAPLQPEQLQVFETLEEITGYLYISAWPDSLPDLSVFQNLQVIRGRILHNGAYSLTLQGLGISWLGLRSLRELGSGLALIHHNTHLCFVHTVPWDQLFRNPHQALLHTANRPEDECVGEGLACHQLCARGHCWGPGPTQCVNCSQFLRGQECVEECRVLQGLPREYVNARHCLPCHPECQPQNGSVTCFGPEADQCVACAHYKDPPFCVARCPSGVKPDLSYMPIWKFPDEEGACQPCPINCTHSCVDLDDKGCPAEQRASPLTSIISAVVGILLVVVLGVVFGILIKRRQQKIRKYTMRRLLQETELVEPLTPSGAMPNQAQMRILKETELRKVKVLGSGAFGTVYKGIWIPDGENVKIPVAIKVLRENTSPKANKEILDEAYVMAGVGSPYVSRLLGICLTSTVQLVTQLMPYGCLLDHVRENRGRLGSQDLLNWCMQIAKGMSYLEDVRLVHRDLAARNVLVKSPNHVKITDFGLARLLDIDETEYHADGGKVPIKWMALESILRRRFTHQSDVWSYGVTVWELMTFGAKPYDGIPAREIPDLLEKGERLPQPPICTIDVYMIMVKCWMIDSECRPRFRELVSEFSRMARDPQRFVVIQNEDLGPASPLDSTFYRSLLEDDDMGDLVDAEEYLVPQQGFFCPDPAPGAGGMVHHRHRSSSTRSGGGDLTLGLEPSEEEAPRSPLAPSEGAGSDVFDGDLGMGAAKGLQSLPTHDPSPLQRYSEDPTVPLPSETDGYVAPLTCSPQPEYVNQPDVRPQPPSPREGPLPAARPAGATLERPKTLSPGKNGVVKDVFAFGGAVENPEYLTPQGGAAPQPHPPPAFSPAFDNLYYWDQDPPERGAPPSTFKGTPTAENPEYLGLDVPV
Chain of ErbB2 insYVMA (HER2-YVMA, SEQ ID NO: 2) (P04626 with tags, fused parts or gaps INS775YVMA/P1170A limits assumed): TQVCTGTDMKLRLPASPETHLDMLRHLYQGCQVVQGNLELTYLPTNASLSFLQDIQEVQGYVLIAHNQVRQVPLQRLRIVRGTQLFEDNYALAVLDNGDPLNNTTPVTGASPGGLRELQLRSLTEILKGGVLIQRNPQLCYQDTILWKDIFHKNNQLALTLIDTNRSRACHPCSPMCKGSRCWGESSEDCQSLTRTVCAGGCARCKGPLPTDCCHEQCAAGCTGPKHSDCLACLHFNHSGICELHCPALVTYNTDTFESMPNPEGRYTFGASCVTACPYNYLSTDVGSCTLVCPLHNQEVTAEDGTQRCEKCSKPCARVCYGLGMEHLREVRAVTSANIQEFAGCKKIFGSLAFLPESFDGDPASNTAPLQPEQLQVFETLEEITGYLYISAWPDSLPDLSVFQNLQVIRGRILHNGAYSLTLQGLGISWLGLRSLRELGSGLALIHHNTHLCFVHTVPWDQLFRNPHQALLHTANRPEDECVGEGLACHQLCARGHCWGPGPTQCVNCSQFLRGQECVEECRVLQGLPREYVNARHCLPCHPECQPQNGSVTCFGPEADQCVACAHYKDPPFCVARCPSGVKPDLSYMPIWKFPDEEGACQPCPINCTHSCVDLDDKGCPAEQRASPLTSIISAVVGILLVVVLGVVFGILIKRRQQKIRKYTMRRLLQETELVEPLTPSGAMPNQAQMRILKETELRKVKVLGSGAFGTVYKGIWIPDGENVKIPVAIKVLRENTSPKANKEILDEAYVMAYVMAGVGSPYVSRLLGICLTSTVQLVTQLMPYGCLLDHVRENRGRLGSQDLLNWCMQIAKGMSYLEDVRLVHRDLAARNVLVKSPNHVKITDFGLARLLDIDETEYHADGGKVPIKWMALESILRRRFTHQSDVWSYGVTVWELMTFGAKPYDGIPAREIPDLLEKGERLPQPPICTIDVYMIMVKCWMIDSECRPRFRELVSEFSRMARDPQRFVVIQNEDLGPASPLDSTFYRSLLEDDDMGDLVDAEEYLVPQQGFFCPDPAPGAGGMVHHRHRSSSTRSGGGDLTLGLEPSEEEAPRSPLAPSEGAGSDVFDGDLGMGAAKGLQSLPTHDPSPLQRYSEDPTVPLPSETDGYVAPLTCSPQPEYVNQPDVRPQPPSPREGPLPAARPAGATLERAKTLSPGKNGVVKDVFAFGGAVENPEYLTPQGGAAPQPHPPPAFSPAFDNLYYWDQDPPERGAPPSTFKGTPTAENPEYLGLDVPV

Row | Structure (SMILES) | IC50 (EGFR) [nM] | IC50 (ErbB2 WT) [nM] | IC50 ([1]; read-out: Assay 1 IC50) [nM] | IC50 [2] [nM] | IC50 ([1]; Assay 1 IC50 (nM)) [nM]
1 | Cc1cc(Nc2ncnc3cnc(N4CC[C@@H]4C(C)(C)O)nc23)ccc1Oc1ccc2c(c1)ncn2C [Example 397] | ≥ 10000 | 144 | 20.3 | 115 | –
2 | COC1CN(c2ncc3ncnc(Nc4ccc(Oc5ccc6c(c5)ncn6C)c(C)c4)c3n2)C1 [Example 43, 6-(3-methoxyazetidin-1-yl)-N-(3-methyl-4-((1-methyl-1H-benzo[d]imidazol-5-yl)oxy)phenyl)pyrimido[5,4-d]pyrimidin-4-amine] | ≥ 10000 | 59.8 | 28.8 | 92.1 | –
3 | Cc1cc(Nc2ncnc3cnc(N4CCC[C@H]4C(F)F)nc23)ccc1Oc1ccc2c(c1)ncn2C [Example 55, (S)-6-(2-(difluoromethyl)pyrrolidin-1-yl)-N-(3-methyl-4-((1-methyl-1H-benzo[d]imidazol-5-yl)oxy)phenyl)pyrimido[5,4-d]pyrimidin-4-amine] | ≥ 10000 | 260 | 110 | 98.4 | –
4 | Cc1cc(Nc2ncnc3cnc(N[C@H](C)COC(F)(F)F)nc23)ccc1Oc1ccc2c(c1)ncn2C [Example 64, (R)—N8-(3-methyl-4-((1-methyl-1H-benzo[d]imidazol-5-yl)oxy)phenyl)-N2-(1-(trifluoromethoxy)propan-2-yl)pyrimido[5,4-d]pyrimidine-2,8-diamine] | ≥ 10000 | 1300 | 157 | 324 | –
5 | Cc1cc(Nc2ncnc3cnc(N4CCC(F)(F)CC4)nc23)ccc1Oc1ccc2c(c1)ncn2C [Example 236] | ≥ 10000 | 352 | 149 | 89.9 | –
6 | Cc1cc(Nc2ncnc3cnc(NC4CCC4(F)F)nc23)ccc1Oc1ccc2c(c1)ncn2C (centres unmarked) [Example 52, N2-(2,2-difluorocyclobutyl)-N8-(3-methyl-4-((1-methyl-1H-benzo[d]imidazol-5-yl)oxy)phenyl)pyrimido[5,4-d]pyrimidine-2,8-diamine] | ≥ 10000 | 317 | 100 | 160 | –
7 | CC(=O)N1CC2CC(C1)N2c1ncc2ncnc(Nc3ccc(Oc4ccc5c(c4)ncn5C)c(C)c3)c2n1 [Example 23, 1-(6-(8-((3-methyl-4-((1-methyl-1H-benzo[d]imidazol-5-yl)oxy)phenyl)amino)pyrimido[5,4-d]pyrimidin-2-yl)-3,6-diazabicyclo[3.1.1]heptan-3-yl)ethan-1-one] | ≥ 10000 | 1340 | 313 | 717 | –
8 | Cc1cnc(-c2ncc3ncnc(Nc4ccc(Oc5ccc6c(c5)ncn6C)c(C)c4)c3n2)s1 [Example 41, N-(3-methyl-4-((1-methyl-1H-benzo[d]imidazol-5-yl)oxy)phenyl)-6-(5-methylthiazol-2-yl)pyrimido[5,4-d]pyrimidin-4-amine] | ≥ 10000 | 234 | 196 | 53 | –
9 | Cc1cc(Nc2ncnc3cnc(N4CCC[C@@H]4C(F)(F)F)nc23)ccc1Oc1ccc2c(c1)ncn2C [Example 229] | ≥ 10000 | 376 | 171 | 165 | –
10 | Cc1cc(Nc2ncnc3cnc(N4CCOC[C@@H]4C)nc23)ccc1Oc1ccc2c(c1)ncn2C [Example 258] | ≥ 10000 | 177 | 88.3 | 51.4 | –
11 | Cc1cc(Nc2ncnc3cnc(N[C@@H](C)COC(F)(F)F)nc23)ccc1Oc1ccc2c(c1)ncn2C [Example 63, (S)—N8-(3-methyl-4-((1-methyl-1H-benzo[d]imidazol-5-yl)oxy)phenyl)-N2-(1-(trifluoromethoxy)propan-2-yl)pyrimido[5,4-d]pyrimidine-2,8-diamine] | ≥ 10000 | 862 | 195 | 191 | –
12 | Cc1cc(Nc2ncnc3cnc(N4CC[C@H]4C(F)F)nc23)ccc1Oc1ccc2c(c1)ncn2C [Example 388] | ≥ 10000 | 89.4 | 62.1 | 52.2 | –
13 | Cc1cc(Nc2ncnc3cnc(N4CC(COC(F)F)C4)nc23)ccc1Oc1ccc2c(c1)ncn2C [Example 245] | ≥ 10000 | 142 | 50.4 | 109 | –
14 | COCCOc1ncc2ncnc(Nc3ccc(Oc4ccc5c(c4)ncn5C)c(C)c3)c2n1 [Example 76, 6-(2-methoxyethoxy)-N-(3-methyl-4-((1-methyl-1H-benzo[d]imidazol-5-yl)oxy)phenyl)pyrimido[5,4-d]pyrimidin-4-amine 2,2,2-trifluoroacetate] | ≥ 10000 | 2340 | – | 1300 | 337
15 | Cc1cc(Nc2ncnc3cnc(N4CC(OC(F)F)C4)nc23)ccc1Oc1ccc2c(c1)ncn2C [Example 244] | ≥ 10000 | 107 | 41.9 | 92.2 | –
16 | COC1CC2(C1)CN(c1ncc3ncnc(Nc4ccc(Oc5ccc6c(c5)ncn6C)c(C)c4)c3n1)C2 [Example 237] | ≥ 10000 | 70.2 | 32 | 71.6 | –
17 | Cc1cc(Nc2ncnc3cnc(N4CC5CC5(C)C4)nc23)ccc1Oc1ccc2c(c1)ncn2C (centres unmarked) [Example 225] | ≥ 10000 | 218 | 149 | 85.4 | –
18 | Cc1cc(Nc2ncnc3cnc(N4CCC[C@@H]4C(F)F)nc23)ccc1Oc1ccc2c(c1)ncn2C [Example 56, (R)-6-(2-(difluoromethyl)pyrrolidin-1-yl)-N-(3-methyl-4-((1-methyl-1H-benzo[d]imidazol-5-yl)oxy)phenyl)pyrimido[5,4-d]pyrimidin-4-amine] | ≥ 10000 | 403 | 205 | 105 | –
19 | Cc1cc(Nc2ncnc3cnc(N4CC(C)(O)C4)nc23)ccc1Oc1ccc2c(c1)ncn2C [Example 246] | ≥ 10000 | 70.8 | 28.2 | 103 | –
20 | Cc1cc(Nc2ncnc3cnc(N4C5COCC4C5)nc23)ccc1Oc1ccc2c(c1)ncn2C [Example 255] | ≥ 10000 | 434 | 113 | 160 | –
21 | Cc1cc(Nc2ncnc3cnc(N4CC(C(F)F)C4)nc23)ccc1Oc1ccc2c(c1)ncn2C [Example 37, 6-(3-(difluoromethyl)azetidin-1-yl)-N-(3-methyl-4-((1-methyl-1H-benzo[d]imidazol-5-yl)oxy)phenyl)pyrimido[5,4-d]pyrimidin-4-amine] | ≥ 10000 | 393 | 78.8 | 174 | –
22 | Cc1cc(Nc2ncnc3cnc(N4CC[Si](C)(C)CC4)nc23)ccc1Oc1ccc2c(c1)ncn2C [Example 474] | ≥ 10000 | 727 | – | 559 | 254
23 | CCn1cnc2cc(Oc3ccc(Nc4ncnc5cnc(N6CCOCC6)nc45)cc3C)ccc21 [Example 75, N-(4-((1-ethyl-1H-benzo[d]imidazol-5-yl)oxy)-3-methylphenyl)-6-morpholinopyrimido[5,4-d]pyrimidin-4-amine 2,2,2-trifluoroacetate] | ≥ 10000 | 141 | – | 23.9 | 51.8

Source: patent publication US11834453B2, “Substituted pyrimido[5,4-d]pyrimidines as HER2 inhibitors” (Array BioPharma Inc., priority 2020, dated 2023)
